Assay [1] concerns Ishikawa cells. Briefly: Ishikawa cell alkaline phosphatase assay. The settings on record: for ED50 of estrogenic activity by the alkaline phosphatase method: Ishikawa cells, 48 h treatment, reference standards; for % Activation (Ishikawa alkaline phosphatase) with 1 nM 17β-estradiol: compound + 1 nM 17β-estradiol (antiestrogen test); for % Activation (Ishikawa alkaline phosphatase): compound alone, percent of response related to 1 nM 17β-estradiol. Type of assay: cell-based, human. The method, then: Cells were treated for 48 h prior to assay. […] Sample population for at each dose was n=8. […] Plates are placed at -80° C. for a minimum of […]. Plates are thawed at 37° C. followed by the addition of 150 μL of 0.1 M Tris-HCl, pH 9.8, containing 4 mM para-nitrophenylphosphate (pNPP) to each well (final concentration, 3 mM pNPP). Absorbance and slope calculations were made using the […] Application program (Bio-Tek Instruments, Inc., Winooski, Vt.). […] The four listed in the following were used as reference standards: A description of these methods is described by Holinka, […]., Kuramoto, H. and Gurpide, E. (1986) Effects of steroid hormones and antisteroids on alkaline phosphatase activity in human endometrial cancer cells (Ishikawa Line). Cancer Research, 46:2771-2774, and by […]. and […] simple and sensitive microtiter plate estrogen bioassay based on stimulation alkaline phosphatase in Ishikawa cells; […] Endocrinology, 6:2757-2762.

Assay [2] concerns the target T1, estrogen receptor (Homo sapiens (Human), UniProt P03372). Briefly: In vitro estrogen receptor binding assay. The settings on record: competition with [3H]17β-estradiol, cytosol of CHO cells overexpressing the estrogen receptor; for IC50: read-out: Receptor Binding IC50's. As to the method:
CHO cells overexpressing the estrogen receptor were grown in 150 mm^2 dishes in DMEM+10% dextran coated charcoal, stripped fetal bovine serum. The plates were washed twice with PBS and once with 10 mM Tris-HCl, pH 7.4, 1 mM EDTA. Cells were harvested by scraping the surface and then the cell suspension was placed on ice. Cells were disrupted with a hand-held motorized tissue grinder using two, 10-second bursts. […] The cytosol was then frozen and stored at −80° C. Protein concentration of the cytosol was estimated using the BCA assay with reference standard protein.
100 uG/100 uL of the receptor preparation was aliquoted per well. […] The plate was incubated at room temperature for 2.5 h. […] 200 uL of the supernatant solution was then removed for scintillation counting. Samples were counted to 2% or 10 minutes, whichever occurs first.
Counts per minute (CPM) of radioactivity were automatically converted to disintegrated per minute (DPM) by the Beckman LS 7500 Scintillation Counter using a set of quenched standards to generate a H No. for each sample.
For the generation of IC50 curves, % binding is plotted vs compound. […] For a description of these methods, see Hulme, E. C., ed. […] Receptor-Ligand Interactions: A Practical Approach. IRL Press, New York. (see especially chapter 8).

In assay [3] the target is T1, estrogen receptor. Briefly: 2×VIT ERE infection luciferase assay. The format is cell-based. The settings on record: for Infection Luciferase Activity, 1 uM + 17β estradiol: 1 uM compound + 1 nM 17β-estradiol (estrogen antagonism); for Infection Luciferase Activity, 1 uM: 1 uM compound alone, percentage of activity as compared to 17β-estradiol. As to the method:
Chinese Hamster Ovary cells (CHO) which had been stably transfected with the human estrogen receptor were maintained in DMEM+10% fetal bovine serum (FBS). 48 h prior to treatment the growth medium was replaced with DMEM lacking phenol red+10% dextran coated charcoal stripped FBS (treatment medium). Cells were plated at a density of 5000 cells/well in 96-well plates containing 200 μL of medium/well.
Reporter DNA (Promega plasmid pGL2 containing two tandem copies of the vitellogenin ERE in front of the minimal thymidine kinase promoter driving the luciferase gene) was combined with the B-galactosidase expression plasmid pCH110 (Pharmacia) and carrier DNA (pTZ18U) in the following ratio:
20 uL of this mixture was added to each well of cells and remained on the cells for 16 h. […] Each treatment condition was performed on 8 wells (n=8) which were incubated for 24 h prior to the luciferase assay.
After removing the PBS, 25 uL of Promega lysis buffer was added to each well and allowed to stand at room temperature for 15 min, followed by 15 min at −80° C. and 15 min at 37° C. 20 uL of lysate was transferred to an opaque 96 well plate for luciferase activity evaluation and the remaining lysate (5 uL) was used for the B-galactosidase activity evaluation (normalize transfection). The luciferan substrate (Promega) was added in 100 uL aliquots to each well automatically by the luminometer and the light produced (relative light units) was read 10 seconds after addition.
To the remaining 5 uL of lysate 45 uL of PBS was added. Then 50 uL of Promega B-galactosidase 2× assay buffer was added, mixed well and incubated at 37° C. for 1 hour. A plate containing a standard curve (0.1 to 1.5 milliunits in triplicate) was set up for each experimental run. The plates were analyzed on a Molecular Devices spectrophotometric plate reader at 410 nm. The optical densities for the unknown were converted to milliunits of activity by mathematical extrapolation from the standard curve.
The luciferase data was generated as relative light units (RLUs) accumulated during a 10 second measurement and automatically transferred to a JMP (SAS Inc) file where background RLUs were subtracted. The B-galactosidase values were automatically imported into the file and these values were divided into the RLUs to normalize the data. The mean and standard deviations were determined from a n=8 for each treatment. […] These techniques are described by Tzukerman, M. T., Esty, A., Santiso-Mere, D., Danielian, P., Parker, M. G., Stein, R. B., Pike, J. W. and McDonnel, D. P. (1994). Human estrogen receptor transactivational capacity was determined by both cellular and promoter context and mediated by two functionally distinct intramolecular regions (see Molecular Endocrinology, 8:21-30).

The test system of assay [4] is Immature Sprague-Dawley rats. The assay is described as follows: Rat uterotrophic/antiuterotrophic bioassay. The settings on record: immature female rats, daily ip; for Uterine wt mg 100 uG cmpd + 1uG 17β-estradiol: 100 uG compound + 1 uG 17β-estradiol; for Uterine wt mg 100 uG cmpd: 100 uG compound, wet weight. Type of assay: in vivo. As to the method:
The estrogenic and antiestrogenic properties of the compounds were determined in an immature rat uterotrophic assay (4 day) that (as described previously by L. J. Black and R. L. Goode, Life Sciences, 26, 1453 (1980)). Immature Sprague-Dawley rats (female, 18 days old) were tested in groups of six. […] On day 4 the animals were sacrificed by CO2 asphyxiation and their uteri were removed and stripped of excess lipid, any fluid removed and the wet weight determined. A small section of one horn was submitted for histology and the remainder used to isolate total RNA in order to evaluate complement component 3 gene expression.

The text below walks through data of patent US8815934B2, “2-Phenyl-1-[4-(2-Aminoethoxy)-Benzyl]-Indole and estrogen formulations” (Wyeth LLC, priority 1998, dated 2014).

The term IC50 denotes the concentration needed to halve the response being measured.

T1 sequence (P03372 whole entry): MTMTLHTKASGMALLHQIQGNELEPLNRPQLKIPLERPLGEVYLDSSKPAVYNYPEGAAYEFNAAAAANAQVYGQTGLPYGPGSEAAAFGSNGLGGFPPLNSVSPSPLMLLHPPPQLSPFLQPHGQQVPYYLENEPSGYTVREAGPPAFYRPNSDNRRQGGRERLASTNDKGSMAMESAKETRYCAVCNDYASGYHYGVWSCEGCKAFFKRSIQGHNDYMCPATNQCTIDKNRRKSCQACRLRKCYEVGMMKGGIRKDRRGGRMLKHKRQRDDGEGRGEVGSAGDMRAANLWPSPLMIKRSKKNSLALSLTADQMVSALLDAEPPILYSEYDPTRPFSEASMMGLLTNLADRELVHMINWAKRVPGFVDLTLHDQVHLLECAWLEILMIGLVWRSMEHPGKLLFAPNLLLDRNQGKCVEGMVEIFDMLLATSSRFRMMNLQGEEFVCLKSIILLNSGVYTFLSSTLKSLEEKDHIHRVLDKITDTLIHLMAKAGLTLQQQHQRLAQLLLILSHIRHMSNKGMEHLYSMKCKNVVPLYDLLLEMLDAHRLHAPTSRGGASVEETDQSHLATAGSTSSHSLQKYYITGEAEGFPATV

As for `C[C@]12CC[C@@H]3c4ccc(O)cc4CC[C@H]3[C@@H]1CC[C@H]2O` [17α-estradiol], the “ED50 of estrogenic activity by the alkaline phosphatase method” value (shortened to “ED50 of estrogenic activity”) in assay [1] is reported as 1.42 nM.

`Cc1c(-c2ccccc2)n(Cc2ccc(OCCN3CCCCC3)cc2)c2ccccc12` [No. 85, 4-{3-Methyl-1-[4-(2-piperidin-1-yl-ethoxy)-benzyl]-1H-indole}]: the IC50 in assay [2] was 450 nM. In addition, in assay [3], the “Infection Luciferase Activity, 1 uM + 17β estradiol” value is reported as 43% and the “Infection Luciferase Activity, 1 uM” value is −2%. In addition, in assay [4], the “Uterine wt mg 100 uG cmpd + 1uG 17β-estradiol” value amounted to 92.4 mg and the “Uterine wt mg 100 uG cmpd” value was 41.1 mg.

For `Cc1c(-c2ccc(O)cc2)n(Cc2ccc(OCCN3CCCCCC3)cc2)c2ccc(O)cc12` [No. 98, 1-[4-(2-Azepan-1-yl-ethoxy)-benzyl]-2-(4-hydroxy-phenyl)-3-methyl-1H-indol-5-ol], in assay [1], the “% Activation (Ishikawa alkaline phosphatase) with 1 nM 17β-estradiol” value is 1% activity (1% with 1 nM 17β-estradiol) and the “% Activation (Ishikawa alkaline phosphatase)” value is recorded as 1% activity (1% with 1 nM 17β-estradiol). Besides, in assay [4], the “Uterine wt mg 100 uG cmpd + 1uG 17β-estradiol” value came out at 27.9 mg and the “Uterine wt mg 100 uG cmpd” value came to 29.4 mg.

`Cc1c(-c2ccc(O)cc2)n(Cc2ccc(OCC[N+](C)(C)C)cc2)c2ccc(O)cc12.[I-]` [No. 106, 2-(4-Hydroxy-phenyl)-3-methyl-1-[4-(2-dimethyl-1-yl-ethoxy)-benzyl]-1H-indol-5-ol methiodide]: the concentration for half-maximal inhibition (IC50) in assay [2] turned out to be 100 nM. In assay [3], the “Infection Luciferase Activity, 1 uM + 17β estradiol” value was determined as 81% and the “Infection Luciferase Activity, 1 uM” value came to 10%.

As for `Cc1c(-c2ccc3c(c2)OCO3)n(Cc2ccc(OCCN3CCCCC3)cc2)c2ccc(O)cc12` [No. 119, 2-Benzo[1.3]dioxol-5-yl-3-methyl-1-[4-(2-piperidin-1-yl-ethoxy)-benzyl]-1H-indol-5-ol], the IC50 in assay [2] is 70 nM. Also, in assay [3], the “Infection Luciferase Activity, 1 uM + 17β estradiol” value is recorded as −1% and the “Infection Luciferase Activity, 1 uM” value is recorded as −1%.

As for `Cc1c(-c2ccc(OC(C)C)cc2)n(Cc2ccc(OCCN3CCCCC3)cc2)c2ccc(O)cc12` [No. 120, 2-(4-Isopropoxy-phenyl)-3-methyl-1-[4-(2-1-yl-ethoxy)-benzyl]-1H-indol-5-ol], the IC50 in assay [2] was 100 nM. Besides, in assay [3], the “Infection Luciferase Activity, 1 uM + 17β estradiol” value is reported as 1% and the “Infection Luciferase Activity, 1 uM” value was −1%.

As to `Cc1c(-c2ccc(OC3CCCC3)cc2)n(Cc2ccc(OCCN3CCCCC3)cc2)c2ccc(O)cc12` [No. 122, 2-(4-Cyclopenyloxy-phenyl)-3-methyl-1-[4-(2-piperidin-1-yl-ethoxy)-benzyl]-1H-indol-5-ol], in assay [2], the 50% inhibitory concentration (IC50) came out at 80 nM. Moreover, in assay [3], the “Infection Luciferase Activity, 1 uM + 17β estradiol” value worked out at 5% and the “Infection Luciferase Activity, 1 uM” value is listed as 1%. Moreover, in assay [4], the “Uterine wt mg 100 uG cmpd + 1uG 17β-estradiol” value is reported as 38.7 mg and the “Uterine wt mg 100 uG cmpd” value was found to be 46.7 mg.

On to `Cc1c(-c2ccc(C(F)(F)F)cc2)n(Cc2ccc(OCCN3CCCCC3)cc2)c2ccc(O)cc12` [No. 123, 3-Methyl-1-[4-(2-piperidin-1-yl-ethoxy)-benzyl]-2-(4-trifluoromethyl-phenyl)-1H-indol-5-ol], for which, in assay [3], the “Infection Luciferase Activity, 1 uM + 17β estradiol” value amounted to 1% and the “Infection Luciferase Activity, 1 uM” value is recorded as −1%. Moreover, in assay [4], the “Uterine wt mg 100 uG cmpd + 1uG 17β-estradiol” value turned out to be 61.4 mg and the “Uterine wt mg 100 uG cmpd” value amounted to 39.2 mg.

In the case of `N#Cc1c(-c2ccc(O)cc2)n(Cc2ccc(OCCN3CCCCC3)cc2)c2ccc(O)cc12` [No. 138, 5-Hydroxy-2-(4-Hydroxy-phenyl)-1-[4-(2-piperidin-1-yl-ethoxy)-benzyl]-1H-indole-3-carbonitrile], in assay [3], the “Infection Luciferase Activity, 1 uM + 17β estradiol” value is reported as −1% and the “Infection Luciferase Activity, 1 uM” value is recorded as −2%. Further, in assay [4], the “Uterine wt mg 100 uG cmpd + 1uG 17β-estradiol” value is on record as 37.9 mg and the “Uterine wt mg 100 uG cmpd” value came to 28.4 mg.

Consider `Cc1c(-c2ccc(OC(=O)C(C)(C)C)cc2)n(Cc2ccc(OCCN3CCCCC3)cc2)c2ccc(OC(=O)C(C)(C)C)cc12` [No. 162, Di-pivalate ester of 2-(4-Hydroxy-phenyl)-3-methyl-1-[4-(2-piperidin-1-yl-ethoxy)-benzyl]-1H-indol-5-ol], for which, in assay [2], the “Receptor Binding IC50's” value is listed as “Does not Bind”. For the same compound, in assay [3], the “Infection Luciferase Activity, 1 uM + 17β estradiol” value is on record as −13% and the “Infection Luciferase Activity, 1 uM” value is on record as −14%.

Take `COc1cc(Cn2c(-c3ccc(O)cc3)c(C)c3cc(O)ccc32)ccc1OCCN1CCCCCC1` [No. 168, 2-(4-Hydroxy-phenyl)-1-[3-methoxy-4-(2-azepan-1-yl-ethoxy)-benzyl]-3-methyl-1H-indol-5-ol]: in assay [4], the “Uterine wt mg 100 uG cmpd + 1uG 17β-estradiol” value came to 81.7 mg and the “Uterine wt mg 100 uG cmpd” value turned out to be 43.2 mg.

Consider `C[C@]12CC[C@@H]3c4ccc(O)cc4CC[C@H]3[C@@H]1C[C@@H](O)[C@@H]2O` [estriol], for which, in assay [1], the “ED50 of estrogenic activity” value was 0.13 nM.

For the compound `C[C@]12CC[C@@H]3c4ccc(O)cc4CC[C@H]3[C@@H]1CCC2=O` [estrone], the “ED50 of estrogenic activity” value in assay [1] is recorded as 0.36 nM.

For the compound `O=C(c1ccc(OCCN2CCCCC2)cc1)c1c(-c2ccc(O)cc2)sc2cc(O)ccc12` [raloxifene], in assay [1], the “% Activation (Ishikawa alkaline phosphatase) with 1 nM 17β-estradiol” value is on record as 5% activity (5% with 1 nM 17β-estradiol) and the “% Activation (Ishikawa alkaline phosphatase)” value is 5% activity (5% with 1 nM 17β-estradiol).

As for `CC/C(=C(\c1ccccc1)c1ccc(OCCN(C)C)cc1)c1ccccc1` [tamoxifen], in assay [4], the “Uterine wt mg 100 uG cmpd” value turned out to be 71.4 mg.
